Among the data in PubChem BioAssay (NCI) are TGI and GI50 values, retold here.

Molecules are shown by their SMILES.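 96-well plates; 48 h exposure; 5 concentrations. Endpoints by linear interpolation between flanking doses. Not reached: highest tested concentration assigned. GI50 is the concentration that inhibits growth by half. Definition used: TGI = concentration required for complete inhibition of growth.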

Test systems include DMS 273 small cell lung; LXFL 529 NSCLC; DLD-1 colon; M19-MEL melanoma; DMS 114 small cell lung; SNB-78 CNS; RXF-631 renal; HOP-18 NSCLC; P388/ADR leukemia; P388 leukemia; SN12K1 renal.
Holding throughout (experiment): NCI tumour cell line growth inhibition, 48 h

On to `O=C(OCc1ccccc1)C(Cc1ccccc1)N(Cc1ccccc1)Cc1ccccc1` (centres undefined), for which the TGI in the test on DMS 273 small cell lung, with LXFL 529 NSCLC, with DLD-1 colon, in the test with M19-MEL melanoma, in the test with DMS 114 small cell lung and with SNB-78 CNS was more than 100 µM each time.
In the case of `COc1cc(CC(C)N)ccc1O` (centres undefined), the TGI in the test with DMS 273 small cell lung, in the test on RXF-631 renal, in the test with HOP-18 NSCLC, with LXFL 529 NSCLC, in the test on DLD-1 colon and in the test on DMS 114 small cell lung was more than 100 µM in each case. In the test on SNB-78 CNS, the TGI is more than 100 µM.
On to `O=C([CH-]C(=O)c1ccccc1)c1ccccc1.O=C([CH-]C(=O)c1ccccc1)c1ccccc1.[O]=[U+2]=[O]`, for which, in the test on HOP-18 NSCLC, the GI50 was 5.3 µM and the TGI was 24.9 µM.
With `Cc1c2ccncc2c(C)c2c1[nH]c1ccccc12`, the TGI turned out to be 2.22 µM with DMS 273 small cell lung; 4.32 µM in the test on P388/ADR leukemia; 6.38 µM with HOP-18 NSCLC; 2.33 µM with DLD-1 colon; 2.89 µM with P388 leukemia; 2.16 µM in the test with M19-MEL melanoma. Besides, the values for the TGI in the test with SN12K1 renal, in the test with DMS 114 small cell lung and in the test on SNB-78 CNS were 3.37 µM, 3.09 µM and 7.88 µM, respectively.
Consider `C[C@]12CC[C@H](O)C=C1CC[C@@H]1[C@@H]2CC[C@]2(C)C(c3ccc(=O)oc3)CC[C@]12O` (some centres undefined), for which the TGI in the test on DMS 273 small cell lung amounted to 0.0427 µM; with P388/ADR leukemia it was 125 µM; in the test on HOP-18 NSCLC, 0.0151 µM; in the test with DLD-1 colon, 0.0392 µM; with P388 leukemia it was 125 µM; in the test on M19-MEL melanoma, 0.071 µM. Further, the TGI is 0.0201 µM in the test with SN12K1 renal, less than 0.0125 µM in the test with DMS 114 small cell lung and 0.503 µM in the test with SNB-78 CNS.
As to `O=C1c2cccc(NCCNCCO)c2C(=O)c2cccc(NCCNCCO)c21`, the TGI turned out to be 7.19 µM in the test with DMS 273 small cell lung; 16.4 µM in the test on RXF-631 renal; 7.79 µM in the test on HOP-18 NSCLC; 2.95 µM in the test with LXFL 529 NSCLC; 12.6 µM in the test with DLD-1 colon; 1.41 µM in the test on DMS 114 small cell lung. Moreover, in the test with SNB-78 CNS, the TGI stood at 6.91 µM.
Turning to `NC(=O)c1ncn2c1NC(=O)CC2`, the TGI in the test with DMS 273 small cell lung is more than 100 µM; with P388/ADR leukemia it was more than 100 µM; in the test on HOP-18 NSCLC, more than 100 µM; in the test on DLD-1 colon, more than 100 µM; with P388 leukemia, more than 31.6 µM; in the test on M19-MEL melanoma, more than 100 µM. Besides, the TGI was more than 100 µM in the test with SN12K1 renal, more than 100 µM in the test on DMS 114 small cell lung and more than 86.8 µM in the test on SNB-78 CNS.
`COc1c(O)c(O)cc2c1-c1ccc(OC)c(=O)cc1C(NC(C)=O)CC2` (centres undefined): the TGI is more than 59.8 µM with DMS 273 small cell lung; 68.4 µM in the test on RXF-631 renal; more than 100 µM with HOP-18 NSCLC; 25.2 µM in the test with LXFL 529 NSCLC; more than 100 µM with DLD-1 colon; 23.7 µM in the test on M19-MEL melanoma. Besides, the TGI in the test with DMS 114 small cell lung was 6.43 µM; in the test on SNB-78 CNS it was more than 100 µM.
`COc1cc2c(c(O)c1O)-c1ccc(OC)c(=O)cc1C(NC(C)=O)CC2` (centres undefined): the TGI with DMS 273 small cell lung was more than 100 µM; in the test with RXF-631 renal, more than 92.9 µM; with HOP-18 NSCLC it was more than 100 µM; in the test on LXFL 529 NSCLC, 44.3 µM; in the test on DLD-1 colon, more than 100 µM; in the test on M19-MEL melanoma, 26.1 µM. In the test with SNB-78 CNS, this molecule came in with a TGI of more than 100 µM.
